Patent publication US20100137449A1, “SUBSTITUTED 1,3-CYCLOPENTADIONE MULTI-TARGET PROTEIN KINASE MODULATORS OF CANCER, ANGIOGENESIS AND THE INFLAMMATORY PATHWAYS ASSOCIATED THEREWITH” (METAPROTEOMICS, LLC, priority 2007, published 2010)

Columns and labels:
Assay in all cases: KinaseProfiler Assay
[1] = molecular target: CDK5/p35(h) (Homo sapiens, UniProt Q00535)
[2] = molecular target: MRCKα(h) (Homo sapiens, UniProt Q5VT25)
[3] = molecular target: PAK4(h) (Homo sapiens, UniProt O96013)
[4] = molecular target: T1, MKK7β(h) (Homo sapiens, UniProt O14733)
T1 sequence (O14733 1-419): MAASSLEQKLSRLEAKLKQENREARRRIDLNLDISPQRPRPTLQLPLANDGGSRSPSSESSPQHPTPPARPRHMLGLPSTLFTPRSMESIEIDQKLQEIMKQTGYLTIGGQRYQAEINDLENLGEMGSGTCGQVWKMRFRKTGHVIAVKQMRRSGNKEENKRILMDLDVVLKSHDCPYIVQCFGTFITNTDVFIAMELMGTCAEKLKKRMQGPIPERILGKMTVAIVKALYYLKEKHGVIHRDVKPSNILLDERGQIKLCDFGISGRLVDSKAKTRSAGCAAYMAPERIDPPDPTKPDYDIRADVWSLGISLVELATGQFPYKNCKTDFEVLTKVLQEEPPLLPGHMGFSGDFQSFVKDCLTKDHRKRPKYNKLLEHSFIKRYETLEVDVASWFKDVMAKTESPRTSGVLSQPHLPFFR

[5] = molecular target: cKit(V560G)(h) (Homo sapiens, UniProt P10721, V560G)
Chain of cKit(V560G)(h) (P10721 26-976 V560G): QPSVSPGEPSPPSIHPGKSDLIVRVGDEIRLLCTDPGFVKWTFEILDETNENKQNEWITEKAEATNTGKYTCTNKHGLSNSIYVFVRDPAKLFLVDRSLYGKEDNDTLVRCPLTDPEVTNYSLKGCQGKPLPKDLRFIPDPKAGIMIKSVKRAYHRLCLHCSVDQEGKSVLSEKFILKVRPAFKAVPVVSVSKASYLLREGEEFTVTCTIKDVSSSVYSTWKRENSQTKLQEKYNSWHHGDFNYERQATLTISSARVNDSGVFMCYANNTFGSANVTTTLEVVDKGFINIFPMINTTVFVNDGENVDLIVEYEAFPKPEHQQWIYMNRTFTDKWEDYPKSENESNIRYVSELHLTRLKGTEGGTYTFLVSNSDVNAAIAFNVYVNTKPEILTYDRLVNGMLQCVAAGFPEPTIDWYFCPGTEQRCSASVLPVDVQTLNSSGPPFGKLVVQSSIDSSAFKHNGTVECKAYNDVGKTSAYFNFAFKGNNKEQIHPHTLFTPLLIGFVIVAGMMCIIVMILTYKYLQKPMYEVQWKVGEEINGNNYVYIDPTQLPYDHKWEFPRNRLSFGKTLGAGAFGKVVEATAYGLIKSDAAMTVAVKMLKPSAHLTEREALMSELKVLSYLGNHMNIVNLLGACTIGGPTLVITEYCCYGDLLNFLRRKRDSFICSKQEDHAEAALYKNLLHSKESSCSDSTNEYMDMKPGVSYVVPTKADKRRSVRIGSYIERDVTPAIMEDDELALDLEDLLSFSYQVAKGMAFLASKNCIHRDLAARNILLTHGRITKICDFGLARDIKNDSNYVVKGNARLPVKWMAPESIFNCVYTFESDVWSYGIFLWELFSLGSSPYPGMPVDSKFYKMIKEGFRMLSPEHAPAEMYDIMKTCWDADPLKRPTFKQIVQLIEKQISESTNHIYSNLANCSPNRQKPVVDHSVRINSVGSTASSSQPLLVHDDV

[6] = molecular target: T2, PKG1α(h) (Homo sapiens, UniProt Q13976)
T2 sequence (Q13976 1-671): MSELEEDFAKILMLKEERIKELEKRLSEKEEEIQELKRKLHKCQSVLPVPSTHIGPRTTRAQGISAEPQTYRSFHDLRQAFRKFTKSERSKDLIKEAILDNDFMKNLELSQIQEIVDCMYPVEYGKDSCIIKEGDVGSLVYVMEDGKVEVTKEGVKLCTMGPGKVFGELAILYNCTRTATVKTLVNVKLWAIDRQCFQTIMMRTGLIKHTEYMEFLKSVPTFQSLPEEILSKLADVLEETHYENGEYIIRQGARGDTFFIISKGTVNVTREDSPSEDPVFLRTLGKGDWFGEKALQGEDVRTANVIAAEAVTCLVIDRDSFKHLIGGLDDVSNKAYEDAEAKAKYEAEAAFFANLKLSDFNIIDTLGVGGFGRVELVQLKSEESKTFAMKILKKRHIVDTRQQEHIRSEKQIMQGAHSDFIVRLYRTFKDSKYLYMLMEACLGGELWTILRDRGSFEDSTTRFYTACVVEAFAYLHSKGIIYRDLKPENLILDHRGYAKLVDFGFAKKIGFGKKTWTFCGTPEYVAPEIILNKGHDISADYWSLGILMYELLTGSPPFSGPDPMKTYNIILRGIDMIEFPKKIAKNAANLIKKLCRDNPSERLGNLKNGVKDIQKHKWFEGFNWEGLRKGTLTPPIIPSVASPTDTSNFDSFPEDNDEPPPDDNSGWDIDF

[7] = molecular target: T3, EphB4(h) (Homo sapiens, UniProt P54760)
T3 sequence (P54760 16-987): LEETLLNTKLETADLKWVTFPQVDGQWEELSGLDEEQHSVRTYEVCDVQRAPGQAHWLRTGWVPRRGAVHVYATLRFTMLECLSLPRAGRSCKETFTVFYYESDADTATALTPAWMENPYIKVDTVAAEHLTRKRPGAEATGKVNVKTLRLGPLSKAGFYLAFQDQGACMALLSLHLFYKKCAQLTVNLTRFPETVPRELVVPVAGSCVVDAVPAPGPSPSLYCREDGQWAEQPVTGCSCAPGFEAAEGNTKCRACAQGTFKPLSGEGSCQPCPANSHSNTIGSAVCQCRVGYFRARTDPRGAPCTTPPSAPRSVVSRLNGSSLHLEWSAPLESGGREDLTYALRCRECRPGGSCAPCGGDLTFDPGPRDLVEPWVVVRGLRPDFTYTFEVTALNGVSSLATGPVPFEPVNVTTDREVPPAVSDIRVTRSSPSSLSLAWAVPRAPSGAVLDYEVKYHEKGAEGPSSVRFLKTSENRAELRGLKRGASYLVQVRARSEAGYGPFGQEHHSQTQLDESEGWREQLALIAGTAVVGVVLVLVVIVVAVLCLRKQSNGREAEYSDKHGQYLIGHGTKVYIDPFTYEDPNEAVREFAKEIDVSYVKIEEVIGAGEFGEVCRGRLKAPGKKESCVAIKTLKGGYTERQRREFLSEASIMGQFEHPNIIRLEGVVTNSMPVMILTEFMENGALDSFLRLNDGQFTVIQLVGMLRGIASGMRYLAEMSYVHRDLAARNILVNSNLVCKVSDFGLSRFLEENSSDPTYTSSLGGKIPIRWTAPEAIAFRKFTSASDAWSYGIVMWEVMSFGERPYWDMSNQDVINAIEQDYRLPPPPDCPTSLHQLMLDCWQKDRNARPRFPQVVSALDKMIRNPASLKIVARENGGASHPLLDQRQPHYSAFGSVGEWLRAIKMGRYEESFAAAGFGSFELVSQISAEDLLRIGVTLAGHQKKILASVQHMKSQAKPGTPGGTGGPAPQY

[8] = molecular target: GSK3β(h) (Homo sapiens, UniProt P49841)
Chain of GSK3β(h) (P49841 whole entry): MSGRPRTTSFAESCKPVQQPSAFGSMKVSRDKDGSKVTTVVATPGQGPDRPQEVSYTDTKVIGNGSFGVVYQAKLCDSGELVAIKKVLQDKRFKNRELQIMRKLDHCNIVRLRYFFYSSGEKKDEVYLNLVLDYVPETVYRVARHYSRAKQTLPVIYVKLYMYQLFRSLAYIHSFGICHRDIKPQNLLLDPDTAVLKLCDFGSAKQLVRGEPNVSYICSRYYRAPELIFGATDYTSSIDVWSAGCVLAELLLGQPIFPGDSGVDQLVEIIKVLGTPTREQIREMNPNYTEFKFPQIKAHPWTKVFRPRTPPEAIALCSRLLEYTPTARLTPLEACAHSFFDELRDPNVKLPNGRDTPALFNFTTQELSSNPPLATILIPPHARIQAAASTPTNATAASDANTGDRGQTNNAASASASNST

Chain of CDK5/p35(h) (Q00535 whole entry): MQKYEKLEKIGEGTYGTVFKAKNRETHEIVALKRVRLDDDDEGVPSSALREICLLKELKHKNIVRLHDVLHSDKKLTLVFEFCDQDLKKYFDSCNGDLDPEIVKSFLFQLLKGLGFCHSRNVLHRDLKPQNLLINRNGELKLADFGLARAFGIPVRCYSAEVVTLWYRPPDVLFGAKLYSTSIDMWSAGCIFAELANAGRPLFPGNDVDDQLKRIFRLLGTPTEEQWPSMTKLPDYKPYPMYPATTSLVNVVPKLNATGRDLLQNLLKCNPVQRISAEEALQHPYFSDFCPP
Chain of CDK5/p35(h) (Q15078 whole entry partner): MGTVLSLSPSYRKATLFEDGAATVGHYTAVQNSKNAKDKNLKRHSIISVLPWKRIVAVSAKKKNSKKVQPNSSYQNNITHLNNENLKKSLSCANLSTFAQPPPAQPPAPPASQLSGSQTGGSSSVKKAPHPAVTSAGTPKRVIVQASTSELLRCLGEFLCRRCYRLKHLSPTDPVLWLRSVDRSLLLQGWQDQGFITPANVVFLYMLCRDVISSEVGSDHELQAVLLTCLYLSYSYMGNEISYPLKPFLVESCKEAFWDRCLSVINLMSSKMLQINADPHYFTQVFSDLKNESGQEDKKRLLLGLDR
Chain of MRCKα(h) (Q5VT25 whole entry): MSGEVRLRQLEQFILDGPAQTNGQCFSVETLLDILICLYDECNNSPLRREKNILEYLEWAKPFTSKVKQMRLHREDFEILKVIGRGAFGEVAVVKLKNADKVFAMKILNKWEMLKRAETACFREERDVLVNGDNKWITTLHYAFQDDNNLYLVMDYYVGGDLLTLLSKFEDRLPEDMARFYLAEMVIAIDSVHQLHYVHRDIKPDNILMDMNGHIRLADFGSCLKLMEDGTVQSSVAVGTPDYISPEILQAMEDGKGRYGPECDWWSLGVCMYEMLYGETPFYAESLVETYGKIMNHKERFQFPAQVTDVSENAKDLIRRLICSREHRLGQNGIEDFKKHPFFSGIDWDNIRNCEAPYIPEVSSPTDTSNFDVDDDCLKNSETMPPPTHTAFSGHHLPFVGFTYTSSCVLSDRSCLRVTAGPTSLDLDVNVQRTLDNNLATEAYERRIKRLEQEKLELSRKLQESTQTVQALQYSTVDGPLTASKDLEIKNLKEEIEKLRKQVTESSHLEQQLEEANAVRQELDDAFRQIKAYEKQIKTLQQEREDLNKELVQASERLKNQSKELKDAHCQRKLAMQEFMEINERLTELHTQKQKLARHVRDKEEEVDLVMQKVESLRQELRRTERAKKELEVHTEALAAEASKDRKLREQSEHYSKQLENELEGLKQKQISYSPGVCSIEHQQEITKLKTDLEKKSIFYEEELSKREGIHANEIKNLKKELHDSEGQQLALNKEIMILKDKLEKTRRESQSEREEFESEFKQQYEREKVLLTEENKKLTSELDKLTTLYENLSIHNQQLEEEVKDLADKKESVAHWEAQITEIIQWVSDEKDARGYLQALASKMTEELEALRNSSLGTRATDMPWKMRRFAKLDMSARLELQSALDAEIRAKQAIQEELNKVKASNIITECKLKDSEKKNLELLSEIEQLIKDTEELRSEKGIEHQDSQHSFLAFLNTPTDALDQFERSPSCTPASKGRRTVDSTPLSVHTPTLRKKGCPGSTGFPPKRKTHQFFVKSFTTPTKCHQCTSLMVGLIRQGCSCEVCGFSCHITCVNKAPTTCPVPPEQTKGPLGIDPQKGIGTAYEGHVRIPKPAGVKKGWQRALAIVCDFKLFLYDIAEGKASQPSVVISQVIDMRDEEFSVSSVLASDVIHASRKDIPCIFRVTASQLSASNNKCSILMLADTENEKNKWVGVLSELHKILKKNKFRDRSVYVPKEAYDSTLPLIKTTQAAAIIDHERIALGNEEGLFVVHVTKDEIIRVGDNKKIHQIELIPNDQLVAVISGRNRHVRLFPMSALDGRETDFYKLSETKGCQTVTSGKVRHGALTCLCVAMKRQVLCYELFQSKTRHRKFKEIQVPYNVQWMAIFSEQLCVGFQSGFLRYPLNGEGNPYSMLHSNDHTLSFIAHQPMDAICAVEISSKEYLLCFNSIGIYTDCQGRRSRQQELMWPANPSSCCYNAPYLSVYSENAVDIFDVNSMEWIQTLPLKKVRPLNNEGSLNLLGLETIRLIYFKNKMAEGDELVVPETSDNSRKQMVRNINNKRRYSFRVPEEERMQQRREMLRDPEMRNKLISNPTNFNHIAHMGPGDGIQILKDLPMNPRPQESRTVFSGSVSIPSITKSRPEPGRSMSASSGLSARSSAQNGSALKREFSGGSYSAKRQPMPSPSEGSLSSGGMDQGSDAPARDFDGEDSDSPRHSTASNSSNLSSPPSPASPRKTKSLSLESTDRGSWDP
Chain of PAK4(h) (O96013 whole entry): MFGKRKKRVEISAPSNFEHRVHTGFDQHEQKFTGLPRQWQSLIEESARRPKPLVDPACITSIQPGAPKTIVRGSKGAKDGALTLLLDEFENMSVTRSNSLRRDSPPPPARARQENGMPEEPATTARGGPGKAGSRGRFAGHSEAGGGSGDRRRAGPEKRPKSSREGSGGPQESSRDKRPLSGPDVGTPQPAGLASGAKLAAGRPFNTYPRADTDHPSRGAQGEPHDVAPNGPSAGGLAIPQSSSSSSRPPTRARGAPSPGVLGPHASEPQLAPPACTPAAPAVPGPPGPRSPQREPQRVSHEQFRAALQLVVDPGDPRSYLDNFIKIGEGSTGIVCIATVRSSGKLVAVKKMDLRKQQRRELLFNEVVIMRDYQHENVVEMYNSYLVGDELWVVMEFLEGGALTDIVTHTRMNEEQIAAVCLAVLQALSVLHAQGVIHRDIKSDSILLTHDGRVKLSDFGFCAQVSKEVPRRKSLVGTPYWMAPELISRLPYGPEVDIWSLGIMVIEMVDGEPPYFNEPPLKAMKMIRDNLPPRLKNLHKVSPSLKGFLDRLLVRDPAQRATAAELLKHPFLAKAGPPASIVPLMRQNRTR

In the case of `CC(C)CCC(=O)[C@]1(O)C(O)=C(C(=O)C(C)C)C(=O)[C@H]1CCC(C)C` [TH2, tetrahydroiso-cohumulone], the kinase inhibition ([1]; 1 μg/ml) was 105% of control, the kinase inhibition ([1]; 5 μg/ml) was 98% of control and the kinase inhibition ([1]; 25 μg/ml) was 106% of control. For the same compound, the kinase inhibition ([1]; 50 μg/ml) was 80% of control, the kinase inhibition ([1]; 100 μg/ml) was 90% of control and the kinase inhibition ([2]; 1 μg/ml) was 100% of control. For the same compound, the kinase inhibition ([2]; 5 μg/ml) was 94% of control, the kinase inhibition ([2]; 25 μg/ml) was 112% of control and the kinase inhibition ([2]; 50 μg/ml) was 102% of control. For the same compound, the kinase inhibition ([2]; 100 μg/ml) was 97% of control, the kinase inhibition ([3]; 1 μg/ml) was 105% of control and the kinase inhibition ([3]; 5 μg/ml) was 84% of control. For the same compound, the kinase inhibition ([3]; 25 μg/ml) was 98% of control, the kinase inhibition ([3]; 50 μg/ml) was 110% of control and the kinase inhibition ([3]; 100 μg/ml) was 99% of control. The kinase inhibition ([4]; 1 μg/ml) was 100% of control, the kinase inhibition ([4]; 5 μg/ml) was 110% of control and the kinase inhibition ([4]; 25 μg/ml) was 111% of control. For the same compound, the kinase inhibition ([4]; 50 μg/ml) was 82% of control, the kinase inhibition ([4]; 100 μg/ml) was 72% of control and the kinase inhibition ([5]; 1 μg/ml) was 112% of control. The kinase inhibition ([5]; 5 μg/ml) was 114% of control, the kinase inhibition ([5]; 25 μg/ml) was 105% of control and the kinase inhibition ([5]; 50 μg/ml) was 90% of control. For the same compound, the kinase inhibition ([5]; 100 μg/ml) was 78% of control, the kinase inhibition ([6]; 1 μg/ml) was 103% of control and the kinase inhibition ([6]; 5 μg/ml) was 112% of control. The kinase inhibition ([6]; 25 μg/ml) was 97% of control, the kinase inhibition ([6]; 50 μg/ml) was 92% of control and the kinase inhibition ([6]; 100 μg/ml) was 73% of control. For the same compound, the kinase inhibition ([7]; 1 μg/ml) was 106% of control, the kinase inhibition ([7]; 5 μg/ml) was 112% of control and the kinase inhibition ([7]; 25 μg/ml) was 116% of control. The kinase inhibition ([7]; 50 μg/ml) was 109% of control, the kinase inhibition ([7]; 100 μg/ml) was 98% of control and the kinase inhibition ([8]; 1 μg/ml) was 98% of control. The kinase inhibition ([8]; 5 μg/ml) was 86% of control, the kinase inhibition ([8]; 25 μg/ml) was 55% of control and the kinase inhibition ([8]; 50 μg/ml) was 44% of control. The kinase inhibition ([8]; 100 μg/ml) was 40% of control.
